These results are taken from US12129223B2, “Lipids for use in lipid nanoparticle formulations” (Acuitas Therapeutics, Inc., priority 2021, dated 2024).

Series [1] can be described thus: Determination of pKa of formulated lipids (TNS fluorescence assay in lipid nanoparticles). It is filed as physicochemical. As to conditions: lipid nanoparticles (compound/DSPC/cholesterol/PEG-lipid), lipid formulated in LNP (lipid/DSPC/cholesterol/PEG-lipid), pH at half-maximal intensity. As for the experimental part: As described elsewhere, the pKa of formulated lipids is correlated with the effectiveness of LNPs for delivery of nucleic acids (see Jayaraman et al, Angewandte Chemie, International Edition (2012), 51(34), 8529-8533; Semple et al, Nature Biotechnology 28, 172-176 (2010)). In some embodiments, the preferred range of pKa is ˜5 to ˜7. The pKa of each lipid is determined in lipid nanoparticles using an assay based on fluorescence of 2-(p-toluidino)-6-napthalene sulfonic acid (TNS). Lipid nanoparticles comprising compound of structure (I)/DSPC/cholesterol/PEG-lipid (50/10/38.5/1.5 or 47.5:10:40.7:1.8 mol %) in PBS at a concentration of 0.4 mM total lipid are prepared using the in-line process as described in Example 1. TNS is prepared as a 100 μM stock solution in distilled water. Vesicles are diluted to 24 μM lipid in 2 mL of buffered solutions containing 10 mM HEPES, 10 mM MES, 10 mM ammonium acetate, and 130 mM NaCl, where the pH ranged from 2.5 to 11. An aliquot of the TNS solution is added to give a final concentration of 1 μM and following vortex mixing fluorescence intensity is measured at room temperature in a SLM Aminco Series 2 Luminescence Spectrophotometer using excitation and emission wavelengths of 321 nm and 445 nm. A sigmoidal best fit analysis is applied to the fluorescence data and the pKa is measured as the pH giving rise to half-maximal fluorescence intensity.

In series [2] the test system is luciferase expression in the liver. The experiment in a line: Luciferase mRNA in vivo evaluation using lipid nanoparticle compositions. More on the design: species or system mice. Conditions: LNP with FLuc mRNA, tail vein injection; for Liver Luc @ 0.3 mg/kg: 0.3 mg mRNA/kg; for Liver Luc @ 0.3 mg/kg / Liver Luc @ 1.0 mg/kg: ng luciferase/g liver 4 hours after administration; for Liver Luc @ 1.0 mg/kg: 1.0 mg mRNA/kg; for Liver Luc, *Determined at 0.5 mg/kg: 0.5 mg mRNA/kg (starred cells of the 0.3 mg/kg column), liver 4 hours after administration. How it is done: A lipid of structure (I), DSPC, cholesterol and PEG-lipid are solubilized in ethanol at a molar ratio of 50:10:38.5:1.5 or 47.5:10:40.7:1.8. Lipid nanoparticles (LNP) are prepared at a total lipid to mRNA weight ratio of approximately 10:1 to 40:1. Briefly, the mRNA is diluted to 0.2 mg/mL in 10 to 50 mM citrate buffer, pH 4 or 10 to 25 mM acetate buffer, pH 4. Syringe pumps are used to mix the ethanolic lipid solution with the mRNA aqueous solution at a ratio of about 1:5 to 1:3 (vol/vol) with total flow rates above 15 mL/min. The ethanol is then removed and the external buffer replaced with PBS by dialysis. Finally, the lipid nanoparticles are filtered through a 0.2 µm pore sterile filter.
Studies are performed in 6-8 week old female C57BL/6 mice (Charles River) 8-10 week old CD-1 (Harlan) mice (Charles River) according to guidelines established by an institutional animal care committee (ACC) and the Canadian Council on Animal Care (CCAC). Varying doses of mRNA-lipid nanoparticle are systemically administered by tail vein injection and animals euthanized at a specific time point (e.g., 4 hours) post-administration. Liver and spleen are collected in pre-weighed tubes, weights determined, immediately snap frozen in liquid nitrogen and stored at −80° C. until processing for analysis.
For liver, approximately 50 mg is dissected for analyses in a 2 mL FastPrep tubes (MP Biomedicals, Solon OH). ¼″ ceramic sphere (MP Biomedicals) is added to each tube and 500 μL of Glo Lysis Buffer—GLB (Promega, Madison WI) equilibrated to room temperature is added to liver tissue. Liver tissues are homogenized with the FastPrep24 instrument (MP Biomedicals) at 2×6.0 m/s for 15 seconds. Homogenate is incubated at room temperature for 5 minutes prior to a 1:4 dilution in GLB and assessed using SteadyGlo Luciferase assay system (Promega). Specifically, 50 μL of diluted tissue homogenate is reacted with 50 μL of SteadyGlo substrate, shaken for 10 seconds followed by 5 minute incubation and then quantitated using a CentroXS^3 LB 960 luminometer (Berthold Technologies, Germany). The amount of protein assayed is determined by using the BCA protein assay kit (Pierce, Rockford, IL). Relative luminescence units (RLU) are then normalized to total μg protein assayed. To convert RLU to ng luciferase a standard curve is generated with QuantiLum Recombinant Luciferase (Promega).
The FLuc mRNA (L-6107) from Trilink Biotechnologies will express a luciferase protein, originally isolated from the firefly, Photinus pyralis. FLuc is commonly used in mammalian cell culture to measure both gene expression and cell viability. It emits bioluminescence in the presence of the substrate, luciferin. This capped and polyadenylated mRNA is fully substituted with 5-methylcytidine and pseudouridine.
Representative compounds of the disclosure shown in Table 2 were formulated using the following molar ratio: 50% cationic lipid/10% distearoylphosphatidylcholine (DSPC)/38.5% Cholesterol/1.5% PEG lipid 2-[2-(ω-methoxy(polyethyleneglycol2000)ethoxy]-N,N-ditetradecyl acetamide) or 47.5% cationic lipid/10% DSPC/40.7% Cholesterol/1.8% PEG lipid. Relative activity was determined by measuring luciferase expression in the liver 4 hours following administration via tail vein injection as described in Example 1 or by measuring the amount of human IgG in mouse serum as described in example 2. The activity was compared at a dose of 1.0 or 0.5 or 0.3 mg mRNA/kg and expressed as ng luciferase/g liver measured 4 hours after administration, as described in Example 1 or as μg IgG/mL serum measured 24 hours after administration, as described in Example 2. Compound numbers in Table 2 refer to the compound numbers of Table 1.

The term pKa denotes the pH at which an ionisable group is half protonated.

In turn, `CCCCCCCCCCN(CCCCCCCCCC)C(=O)CCCCCCCN(C)CCCCCCCC(=O)N(CCCCCCCCCC)CCCCCCCCCC` [Compound I-6, 8,8′-(methylazanediyl)bis(N,N-didecyloctanamide)] had a pKa in series [1] of 6.19. Also, in series [2], the “Liver Luc @ 0.3 mg/kg” value was determined as 20084 ± 5967 ng/g and the “Liver Luc @ 1.0 mg/kg” value is reported as 78367 ± 15904 ng/g.
Take `CCCCCCCCCCN(CCCCCCCCCC)C(=O)CCCCCCCN(C)CCCCCCCC(=O)N(CCCCCCCC)CCCCCCCC` [Compound I-55, N,N-didecyl-8-((8-(dioctylamino)-8-oxooctyl)(methyl)amino)octanamide]: the pKa in series [1] came to 6.22. Moreover, in series [2], the “Liver Luc @ 0.3 mg/kg” value is listed as 8244 ± 1599 ng/g and the “Liver Luc @ 1.0 mg/kg” value is 30106 ± 13756 ng/g.
In the same order, the values of `CCCCCCCCCN(CCCCCCCCC)C(=O)CCCCCCCN(C)CCCCCCCC(=O)N(CCCCCCCCC)CCCCCCCCC` [Compound I-58, 8,8′-(methylazanediyl)bis(N,N-dinonyloctanamide)] are 6.19, 18664 ± 5438 ng/g and 73794 ± 14083 ng/g.
As for `CCCCCCCCCCNC(=O)CCCCN(CCCCCCCC(=O)N(CCCCCCCCCC)CCCCCCCCCC)CCCCCCCC(=O)N(CCCCCCCCCC)CCCCCCCCCC` [Compound I-30, 8,8′-((5-(decylamino)-5-oxopentyl)azanediyl)bis(N,N-didecyloctanamide)], the pKa in series [1] stood at 6.16. Also, in series [2], the “Liver Luc @ 0.3 mg/kg” value is on record as 6567 ± 1534 ng/g and the “Liver Luc @ 1.0 mg/kg” value is given as 19625 ± 2173 ng/g.
For the molecule `CCCCCCCCCCN(CCCCCCCCCC)C(=O)CCCCCN(C)CCCCCC(=O)N(CCCCCCCCCC)CCCCCCCCCC` [Compound I-10, 6,6′-(methylazanediyl)bis(N,N-didecylhexanamide)], in series [1], the pKa stood at 6.77. Moreover, in series [2], the “Liver Luc @ 0.3 mg/kg” value amounted to 10779 ± 2473 ng/g and the “Liver Luc @ 1.0 mg/kg” value was 22622 ± 8189 ng/g.
As for `CCCCCCCCCCN(CCCCCCCCCC)C(=O)CCCCCCCCCN(CCCCCCCCCC(=O)N(CCCCCCCCCC)CCCCCCCCCC)CCN(C)C` [Compound I-28, 10,10′-((2-(dimethylamino)ethyl)azanediyl)bis(N,N-didecyldecanamide)], the pKa in series [1] stood at 6.22. Further, in series [2], the “Liver Luc @ 0.3 mg/kg” value is 6602 ± 2609 ng/g and the “Liver Luc @ 1.0 mg/kg” value is reported as 13298 ± 4040 ng/g.
The molecule `CCCCCCCCN(CCCCCCCC)C(=O)CCCCCCCCCN(CCCCCCO)CCCCCCCCCC(=O)N(CCCCCCCC)CCCCCCCC` [Compound I-18, 10,10′-((6-hydroxyhexyl)azanediyl)bis(N,N-dioctyldecanamide)] had a pKa in series [1] of 6.02. In series [2], the “Liver Luc @ 0.3 mg/kg” value was 7115 ± 2087 ng/g and the “Liver Luc @ 1.0 mg/kg” value is reported as 14879 ± 1595 ng/g.
Take `CCCCCCCCN(CCCCCCCC)C(=O)CCCCCCCCCN(C)CCCCCCCCCC(=O)N(CCCCCCCC)CCCCCCCC` [Compound I-8, 10,10′-(methylazanediyl)bis(N,N-dioctyldecanamide)]: the pKa in series [1] came out at 6.02. In series [2], the “Liver Luc @ 0.3 mg/kg” value is given as 8743 ± 2153 ng/g and the “Liver Luc @ 1.0 mg/kg” value is reported as 37220 ± 15377 ng/g.
In series [1], `CCCCCCCCCCN(CCCCCCCCCC)C(=O)CCCCCCCCCN(CCCCCCCCCC(=O)N(CCCCCCCCCC)CCCCCCCCCC)CCCn1ccnc1` [Compound I-57, 10,10′-((3-(1H-imidazol-1-yl)propyl)azanediyl)bis(N,N-didecyldecanamide)] came in with a pKa of 6.24. Also, in series [2], the “Liver Luc @ 0.3 mg/kg” value came out at 476 ± 134 ng/g and the “Liver Luc @ 1.0 mg/kg” value is listed as 1456 ± 518 ng/g.
`CCCCCCCCCCN(CCCCCCCCN(C)CCCCCCCCN(CCCCCCCCCC)C(=O)CCCCCCCCC)C(=O)CCCCCCCCC` [Compound I-65] yielded a pKa in series [1] of 6.33. Further, in series [2], the “Liver Luc @ 0.3 mg/kg” value is listed as 3172 ± 658 ng/g and the “Liver Luc @ 1.0 mg/kg” value turned out to be 24740 ± 6297 ng/g.
For `CCCCC(CC)CN(CC(CC)CCCC)C(=O)CCCCCN(CCCCO)CCCCCC(=O)N(CC(CC)CCCC)CC(CC)CCCC` (stereo not drawn) [Compound I-27, 6,6′-((4-hydroxybutyl)azanediyl)bis(N,N-bis(2-ethylhexyl)hexanamide)], the pKa in series [1] was 6.56. Moreover, the “Liver Luc, *Determined at 0.5 mg/kg” value in series [2] is reported as 21 ± 6* ng/g.
In series [1], `CCCCCCCCC(CCCCCC)C(=O)N(C)CCCCCCCCN(C)CCCCCCCCN(C)C(=O)C(CCCCCC)CCCCCCCC` (stereo not drawn) [Compound I-70, N,N′-((methylazanediyl)bis(octane-8,1-diyl))bis(2-hexyl-N-methyldecanamide)] had a pKa of 6.17. Further, in series [2], the “Liver Luc @ 0.3 mg/kg” value is given as 7516 ± 1487 ng/g and the “Liver Luc @ 1.0 mg/kg” value is given as 33238 ± 9902 ng/g.
`CCCCCCCCCCN(CCCCCCCCCC)C(=O)CCCCCCCN(C)CCCCCCCC(=O)N(CCCCCCCCC)CCCCCCCCC` [Compound I-59] yielded a pKa in series [1] of 6.27. In series [2], the “Liver Luc @ 0.3 mg/kg” value was 10786 ± 1924 ng/g and the “Liver Luc @ 1.0 mg/kg” value amounted to 43489 ± 5698 ng/g.
`CCCCC/C=C\C/C=C\CCCCCCCC(=O)N(CCCCCC)CCCCCCN(C)CCCCCCN(CCCCCC)C(=O)CCCCCCC/C=C\C/C=C\CCCCC` [Compound I-14, (9Z,9′Z,12Z,12′Z)—N,N′-((methylazanediyl)bis(hexane-6,1-diyl))bis(N-hexyloctadeca-9,12-dienamide)]: in series [1], the pKa was found to be 6.59. In series [2], the “Liver Luc @ 0.3 mg/kg” value came to 2738 ± 728 ng/g and the “Liver Luc @ 1.0 mg/kg” value came to 5735 ± 2364 ng/g.
With `CCCCCCCCN(CCCCCCCC)C(=O)CCCCCCCN(C)CCCCCCCC(=O)N(CCCCCCCC)CCCCCCCC` [Compound I-7, 8,8′-(methylazanediyl)bis(N,N-dioctyloctanamide)], the pKa in series [1] worked out at 6.43. Also, in series [2], the “Liver Luc @ 0.3 mg/kg” value was 16595 ± 836 ng/g and the “Liver Luc @ 1.0 mg/kg” value is reported as 81021 ± 24105 ng/g.
In series [1], `CCCCCCCCCCN(CCCCCCCCCC)C(=O)CCCCCCCCCN(CCO)CCCCCCCCCC(=O)N(CCCCCCCCCC)CCCCCCCCCC` [Compound I-20, 10,10′-((2-hydroxyethyl)azanediyl)bis(N,N-didecyldecanamide)] gave a pKa of 6.27. The “Liver Luc, *Determined at 0.5 mg/kg” value in series [2] is listed as 879 ± 365* ng/g.
Regarding `CCCCCCCCN(CCCCCCCC)C(=O)CCCCCN(CCO)CCCCCC(=O)N(CCCCCCCC)CCCCCCCC` [Compound I-3, 6,6′-((2-hydroxyethyl)azanediyl)bis(N,N-dioctylhexanamide)], the pKa in series [1] came out at 6.87. Besides, in series [2], the “Liver Luc, *Determined at 0.5 mg/kg” value is 227 ± 138* ng/g.
